Source: US20220125765A1, “PHARMACEUTICAL COMBINATIONS COMPRISING MEBENDAZOLE AND A STRONG OR MODERATE CYP1A2 INHIBITOR” (ZEPHAPHARM LTD, priority 2019, published 2022)
Like-named read-outs stand apart in the source and are kept apart here.

Tests used:
[1] = target: T1, CYP2C8 (Homo sapiens, UniProt P10632); test: Cytochrome P450 reaction phenotyping, recombinant CYP2C8 (Bactosomes)
T1 sequence (P10632 1-490): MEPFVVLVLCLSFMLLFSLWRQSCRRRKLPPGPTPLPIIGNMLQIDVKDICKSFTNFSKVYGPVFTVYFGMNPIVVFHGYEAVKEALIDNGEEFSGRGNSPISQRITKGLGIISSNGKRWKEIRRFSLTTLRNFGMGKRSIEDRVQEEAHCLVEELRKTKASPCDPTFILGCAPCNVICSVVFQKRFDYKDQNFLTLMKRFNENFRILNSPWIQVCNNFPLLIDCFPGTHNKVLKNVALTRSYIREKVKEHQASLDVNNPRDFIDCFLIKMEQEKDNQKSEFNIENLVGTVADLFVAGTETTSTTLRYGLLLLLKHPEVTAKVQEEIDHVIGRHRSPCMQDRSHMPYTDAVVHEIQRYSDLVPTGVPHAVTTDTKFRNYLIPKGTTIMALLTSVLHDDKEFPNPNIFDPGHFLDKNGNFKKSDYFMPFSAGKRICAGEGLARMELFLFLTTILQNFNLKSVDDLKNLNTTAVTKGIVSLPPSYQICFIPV
Procedure: Incubations were also performed using control Bactosomes™ (no P450 enzymes present) to reveal any non-enzymatic degradation. Control compounds known to be metabolised specifically by each P450 isoform were included. All incubations were performed singularly for each test compound.
Incubations were also performed using control Bactosomes™ (no P450 enzymes present) to reveal any non-enzymatic degradation. Control compounds known to be metabolised specifically by each P450 isoform were included. All incubations were performed singularly for each test compound. […] The reactions were stopped by transferring an aliquot of incubate to quench solvent at the appropriate time points, in a 1:3 ratio. The termination plates were centrifuged at 3,000 rpm for 20 min at 4° C. to precipitate the protein.

[2] = system: SXFS RH-41; test: 2D monolayer CellTiter-Blue viability, soft tissue sarcoma RH-41; format: cell-based; conditions: 72 h
Procedure: Seventeen compounds, including mebendazole (Batch no. […] Efficacy of compounds was assessed using CellTiter-Blue® Cell Viability Assay. Anti-tumor activity is expressed as absolute and relative IC50 and IC70 values, calculated by non-linear regression analysis.

[3] = system: OVXF 899L; test: 2D monolayer CellTiter-Blue viability, ovarian cancer OVXF 899L (P-gp expressing, multidrug resistant); format: cell-based; conditions: for Test/Control (%) at Drug Concentration: 72 h; for IC50: OVXF 899L
Procedure: (§1) Mebendazole was tested in vitro across a panel of 12 tumor cell lines of ovarian and renal cancer by using a 2D monolayer assay. […] OVXF 899L and RXF 486L are P-gp expressing, multidrug resistant cell lines.
(§2) Anti-tumor activity is expressed as absolute and relative IC50/70 values, calculated by 4-parameter non-linear curve fit.

[4] = system: A2780; test: 2D monolayer CellTiter-Blue viability, ovarian cancer A2780; format: cell-based; conditions: for Test/Control (%) at Drug Concentration: 72 h; for IC50: Homo sapiens
Procedure: as §1, §2

[5] = system: SK-OV-3; test: 2D monolayer CellTiter-Blue viability, ovarian cancer SK-OV-3; format: cell-based; conditions: for IC50: Homo sapiens; for Test/Control (%) at Drug Concentration: 72 h
Procedure: as §1, §2

[6] = system: RXF 2282L; test: 2D monolayer CellTiter-Blue viability, renal cancer RXF 2282L; format: cell-based; conditions: for Test/Control (%) at Drug Concentration: 72 h
Procedure: as §1, §2

[7] = system: RXF 486L; test: 2D monolayer CellTiter-Blue viability, renal cancer RXF 486L (P-gp expressing, multidrug resistant); format: cell-based; conditions: for Test/Control (%) at Drug Concentration: 72 h; for IC50: RXF 486L
Procedure: as §1, §2

Compound Remaining (% of 0 min) ([1]; CYP2C8, 5 μM, 0 min): 100 % of 0 min | Compound Remaining (% of 0 min) ([1]; CYP2C8, 5 μM, 5 min): 90.6 % of 0 min | Compound Remaining (% of 0 min) ([1]; CYP2C8, 5 μM, 15 min): 93.4 % of 0 min | Compound Remaining (% of 0 min) ([1]; CYP2C8, 5 μM, 30 min): 102 % of 0 min | Compound Remaining (% of 0 min) ([1]; CYP2C8, 5 μM, 45 min): 99.1 % of 0 min | % compound remaining ([1]; CYP2C8, 5 μM, time not stated): > 87.5% | t1/2 ([1]; CYP2C8, substrate 5 μM): >2.25 h | half-life at 5 μM ([1]; human, recombinant CYP2C8 (Bactosomes), pH 7.4): > 2.25 h | IC50 ([3]; OVXF 899, 72 h, read-out: Abs. IC50): > 3200 nM | IC50 ([3]; OVXF 899, 72 h, read-out: Rel. IC50): 401 nM | IC50 ([4]; A2780, 72 h, read-out: Abs. IC50): 209 nM | IC50 ([4]; A2780, 72 h, read-out: Rel. IC50): 178 nM | IC50 ([5]; SK-OV-3, 72 h, read-out: Abs. IC50): 1200 nM | IC50 ([5]; SK-OV-3, 72 h, read-out: Rel. IC50): 476 nM | IC50 ([6]; RXF 2282, 72 h, read-out: Abs. IC50): > 3200 nM | IC50 ([6]; RXF 2282, 72 h, read-out: Rel. IC50): > 3200 nM | IC50 ([7]; RXF 486, 72 h, read-out: Abs. IC50): 292 nM | IC50 ([7]; RXF 486, 72 h, read-out: Rel. IC50): 248 nM
Structure (SMILES): COC(=O)Nc1nc2ccc(C(=O)c3ccccc3)cc2[nH]1 [Mebendazole, methyl N-(6-benzoyl-1H-benzimidazol-2-yl)carbamate]
Test/Control (%) at Drug Concentration ([2]; RH-41, 1.0E+00 μM): 5% | Test/Control (%) at Drug Concentration ([2]; RH-41, 1.0E+01 μM): 6% | Test/Control (%) at Drug Concentration ([2]; RH-41, 1.0E+02 μM): 1% | Test/Control (%) at Drug Concentration ([2]; RH-41, 1.0E−01 μM): 81% | Test/Control (%) at Drug Concentration ([2]; RH-41, 1.0E−02 μM): 105% | Test/Control (%) at Drug Concentration ([2]; RH-41, 3.2E+00 μM): 5% | Test/Control (%) at Drug Concentration ([2]; RH-41, 3.2E+01 μM): 4% | Test/Control (%) at Drug Concentration ([2]; RH-41, 3.2E−01 μM): 17% | Test/Control (%) at Drug Concentration ([2]; RH-41, 3.2E−02 μM): 93% | Test/Control (%) at Drug Concentration ([2]; RH-41, 3.2E−03 μM): 95% | Test/Control (%) at Drug Concentration ([3]; OVXF 899, 1.0E+00 μM): 54% | Test/Control (%) at Drug Concentration ([3]; OVXF 899, 1.0E−01 μM): 92% | Test/Control (%) at Drug Concentration ([3]; OVXF 899, 1.0E−02 μM): 97% | Test/Control (%) at Drug Concentration ([3]; OVXF 899, 1.0E−03 μM): 100% | Test/Control (%) at Drug Concentration ([3]; OVXF 899, 1.0E−04 μM): 88% | Test/Control (%) at Drug Concentration ([3]; OVXF 899, 3.2E+00 μM): 65% | Test/Control (%) at Drug Concentration ([3]; OVXF 899, 3.2E−01 μM): 94% | Test/Control (%) at Drug Concentration ([3]; OVXF 899, 3.2E−02 μM): 94% | Test/Control (%) at Drug Concentration ([3]; OVXF 899, 3.2E−03 μM): 97% | Test/Control (%) at Drug Concentration ([3]; OVXF 899, 3.2E−04 μM): 98% | Abs. IC70 ([3]; OVXF 899, 72 h): >3200 nM | Rel. IC70 ([3]; OVXF 899, 72 h): 425 nM | Bot. (%) ([3]; OVXF 899, 72 h, curve fit): 57% | Top (%) ([3]; OVXF 899, 72 h, curve fit): 95% | Test/Control (%) at Drug Concentration ([4]; A2780, 1.0E+00 μM): 26% | Test/Control (%) at Drug Concentration ([4]; A2780, 1.0E−01 μM): 91% | Test/Control (%) at Drug Concentration ([4]; A2780, 1.0E−02 μM): 96% | Test/Control (%) at Drug Concentration ([4]; A2780, 1.0E−03 μM): 95% | Test/Control (%) at Drug Concentration ([4]; A2780, 1.0E−04 μM): 115% | Test/Control (%) at Drug Concentration ([4]; A2780, 3.2E+00 μM): 13% | Test/Control (%) at Drug Concentration ([4]; A2780, 3.2E−01 μM): 30% | Test/Control (%) at Drug Concentration ([4]; A2780, 3.2E−02 μM): 97% | Test/Control (%) at Drug Concentration ([4]; A2780, 3.2E−03 μM): 99% | Test/Control (%) at Drug Concentration ([4]; A2780, 3.2E−04 μM): 109% | Abs. IC70 ([4]; A2780, 72 h): 323 nM | Rel. IC70 ([4]; A2780, 72 h): 231 nM | Bot. (%) ([4]; A2780, 72 h, curve fit): 19% | Top (%) ([4]; A2780, 72 h, curve fit): 102% | Test/Control (%) at Drug Concentration ([5]; SK-OV-3, 1.0E+00 μM): 52% | Test/Control (%) at Drug Concentration ([5]; SK-OV-3, 1.0E−01 μM): 99% | Test/Control (%) at Drug Concentration ([5]; SK-OV-3, 1.0E−02 μM): 98% | Test/Control (%) at Drug Concentration ([5]; SK-OV-3, 1.0E−03 μM): 100% | Test/Control (%) at Drug Concentration ([5]; SK-OV-3, 1.0E−04 μM): 94% | Test/Control (%) at Drug Concentration ([5]; SK-OV-3, 3.2E+00 μM): 45% | Test/Control (%) at Drug Concentration ([5]; SK-OV-3, 3.2E−01 μM): 84% | Test/Control (%) at Drug Concentration ([5]; SK-OV-3, 3.2E−02 μM): 102% | Test/Control (%) at Drug Concentration ([5]; SK-OV-3, 3.2E−03 μM): 101% | Test/Control (%) at Drug Concentration ([5]; SK-OV-3, 3.2E−04 μM): 104% | Abs. IC70 ([5]; SK-OV-3, 72 h): >3200 nM | Rel. IC70 ([5]; SK-OV-3, 72 h): 679 nM | Bot. (%) ([5]; SK-OV-3, 72 h, curve fit): 44% | Top (%) ([5]; SK-OV-3, 72 h, curve fit): 100% | Test/Control (%) at Drug Concentration ([6]; RXF 2282, 1.0E+00 μM): 71% | Test/Control (%) at Drug Concentration ([6]; RXF 2282, 1.0E−01 μM): 83% | Test/Control (%) at Drug Concentration ([6]; RXF 2282, 1.0E−02 μM): 84% | Test/Control (%) at Drug Concentration ([6]; RXF 2282, 1.0E−03 μM): 88% | Test/Control (%) at Drug Concentration ([6]; RXF 2282, 1.0E−04 μM): 108% | Test/Control (%) at Drug Concentration ([6]; RXF 2282, 3.2E+00 μM): 57% | Test/Control (%) at Drug Concentration ([6]; RXF 2282, 3.2E−01 μM): 77% | Test/Control (%) at Drug Concentration ([6]; RXF 2282, 3.2E−02 μM): 86% | Test/Control (%) at Drug Concentration ([6]; RXF 2282, 3.2E−03 μM): 89% | Test/Control (%) at Drug Concentration ([6]; RXF 2282, 3.2E−04 μM): 92% | Abs. IC70 ([6]; RXF 2282, 72 h): >3200 nM | Rel. IC70 ([6]; RXF 2282, 72 h): >3200 nM | Bot. (%) ([6]; RXF 2282, 72 h, curve fit): 0% | Top (%) ([6]; RXF 2282, 72 h, curve fit): 102% | Test/Control (%) at Drug Concentration ([7]; RXF 486, 1.0E+00 μM): 24% | Test/Control (%) at Drug Concentration ([7]; RXF 486, 1.0E−01 μM): 88% | Test/Control (%) at Drug Concentration ([7]; RXF 486, 1.0E−02 μM): 101% | Test/Control (%) at Drug Concentration ([7]; RXF 486, 1.0E−03 μM): 97% | Test/Control (%) at Drug Concentration ([7]; RXF 486, 1.0E−04 μM): 92% | Test/Control (%) at Drug Concentration ([7]; RXF 486, 3.2E+00 μM): 17% | Test/Control (%) at Drug Concentration ([7]; RXF 486, 3.2E−01 μM): 45% | Test/Control (%) at Drug Concentration ([7]; RXF 486, 3.2E−02 μM): 92% | Test/Control (%) at Drug Concentration ([7]; RXF 486, 3.2E−03 μM): 94% | Test/Control (%) at Drug Concentration ([7]; RXF 486, 3.2E−04 μM): 96% | Abs. IC70 ([7]; RXF 486, 72 h): 545 nM | Rel. IC70 ([7]; RXF 486, 72 h): 362 nM | Bot. (%) ([7]; RXF 486, 72 h, curve fit): 18% | Top (%) ([7]; RXF 486, 72 h, curve fit): 95%
